Assay results: patent US10681909B2, “Herbicidal triazoles” (FMC Corporation, priority 2014, dated 2020)

Columns and labels:
crabgrass, large [1] = test: Test A preemergence; format: in vivo, Digitaria sanguinalis; details: 0 to 100 scale (0 no effect, 100 complete control)
Method in brief: (§1)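 Test chemicals, formulated in a surfactant-containing non-phytotoxic solvent mixture, are applied either as a directed soil spray to newly planted seeds or as a postemergence application to plants at the one- to two-leaf stage (2–10 cm). All plants grow in a loam soil and sand blend.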

barnyardgrass [2] = test: Test A postemergence; format: in vivo, Echinochloa crus-galli; details: 0 to 100 scale (0 no effect, 100 complete control), approx. 10 d
Method in brief: as §1

velvetleaf [3] = test: Test A preemergence; format: in vivo, Abutilon theophrasti; details: 0 to 100 scale (0 no effect, 100 complete control)
Method in brief: as §1

morningglory [4] = test: Test A preemergence; format: in vivo, Ipomoea spp.; details: 0 to 100 scale (0 no effect, 100 complete control)
Method in brief: as §1

barnyardgrass [5] = test: Test C flooded paddy test; format: in vivo, Echinochloa crus-galli; details: Flood, applied to paddy water, rating after 13 to 15 d
Text: (§2) At time of treatment, test pots were flooded to 3 cm above the soil surface, treated by application of test compounds directly to the paddy water, and then maintained at that water depth for the duration of the test. Treated plants and controls were maintained in a greenhouse for 13 to 15 d, after which time all species were compared to controls and visually evaluated. […] A dash (-) response means no test result.

morningglory [6] = test: Test A postemergence; format: in vivo, Ipomoea spp.; details: 0 to 100 scale (0 no effect, 100 complete control), approx. 10 d
Method in brief: as §1

barnyardgrass [7] = test: Test A preemergence; format: in vivo, Echinochloa crus-galli; details: 0 to 100 scale (0 no effect, 100 complete control)
Method in brief: as §1

foxtail, giant [8] = test: Test A postemergence; format: in vivo, Setaria faberii; details: 0 to 100 scale (0 no effect, 100 complete control), approx. 10 d
Method in brief: as §1

pigweed [9] = test: Test A postemergence; format: in vivo, Amaranthus retroflexus; details: 0 to 100 scale (0 no effect, 100 complete control), approx. 10 d
Method in brief: as §1

wheat [10] = test: Test A preemergence; format: in vivo, Triticum aestivum; details: 0 to 100 scale (0 no effect, 100 complete control)
Method in brief: as §1

crabgrass, large [11] = test: Test A postemergence; format: in vivo, Digitaria sanguinalis; details: 0 to 100 scale (0 no effect, 100 complete control), approx. 10 d
Method in brief: as §1

pigweed [12] = test: Test A preemergence; format: in vivo, Amaranthus retroflexus; details: 0 to 100 scale (0 no effect, 100 complete control)
Method in brief: as §1

corn [13] = test: Test A postemergence; format: in vivo, Zea mays; details: 0 to 100 scale (0 no effect, 100 complete control), approx. 10 d
Method in brief: as §1

rice = test: Test C flooded paddy test; format: in vivo, Oryza sativa; details: Flood, applied to paddy water, rating after 13 to 15 d
Text: as §2

wheat [14] = test: Test A postemergence; format: in vivo, Triticum aestivum; details: 0 to 100 scale (0 no effect, 100 complete control), approx. 10 d
Method in brief: as §1

ducksalad = test: Test C flooded paddy test; format: in vivo, Heteranthera limosa; details: Flood, applied to paddy water, rating after 13 to 15 d
Text: as §2

sedge, umbrella = test: Test C flooded paddy test; format: in vivo, Cyperus difformis; details: Flood, applied to paddy water, rating after 13 to 15 d
Text: as §2

velvetleaf [15] = test: Test A postemergence; format: in vivo, Abutilon theophrasti; details: 0 to 100 scale (0 no effect, 100 complete control), approx. 10 d
Method in brief: as §1

corn [16] = test: Test A preemergence; format: in vivo, Zea mays; details: 0 to 100 scale (0 no effect, 100 complete control)
Method in brief: as §1

foxtail, giant [17] = test: Test A preemergence; format: in vivo, Setaria faberii; details: 0 to 100 scale (0 no effect, 100 complete control)
Method in brief: as §1

Q: For Cc1nc(-c2ccc(C(F)(F)F)cc2)nn1Cc1cccc(C(F)(F)F)c1 [Compound 3], which “Plant response rating, Crabgrass, Large” value (crabgrass, large [1]; 125 g ai/ha) is on record?
A: The value was 0.

Q: And the “Plant response rating, Crabgrass, Large” value (crabgrass, large [1]; 500 g ai/ha, approx. 10 d)?
A: Its value is 40.

Q: What about the “Plant response rating, Barnyardgrass” value (barnyardgrass [2]; 125 g ai/ha) of the same molecule?
A: Its value is 0.

Q: And the “Plant response rating, Barnyardgrass” value (barnyardgrass [2]; 500 g ai/ha)?
A: The value was 10.

Q: And the “Plant response rating, Velvetleaf” value (velvetleaf [3]; 125 g ai/ha)?
A: Its value is 0.

Q: And the “Plant response rating, Velvetleaf” value (velvetleaf [3]; 500 g ai/ha, approx. 10 d)?
A: The value was 0.

Q: What about the “Plant response rating, Morningglory” value (morningglory [4]; 125 g ai/ha) of the same molecule?
A: The value was 0.

Q: What about the “Plant response rating, Morningglory” value (morningglory [4]; 500 g ai/ha, approx. 10 d) of the same molecule?
A: Its value is 0.

Q: What about the “Barnyardgrass plant response rating (0 to 100)” value (barnyardgrass [5]; 31 g ai/ha) of the same molecule?
A: The value was 0.

Q: And the “Barnyardgrass plant response rating (0 to 100)” value (barnyardgrass [5]; 62 g ai/ha)?
A: Its value is 20.

Q: And the “Barnyardgrass plant response rating (0 to 100)” value (barnyardgrass [5]; 125 g ai/ha)?
A: The value was 20.

Q: What about the “Barnyardgrass plant response rating (0 to 100)” value (barnyardgrass [5]; 250 g ai/ha) of the same molecule?
A: Its value is 20.

Q: And the “Plant response rating, Morningglory” value (morningglory [6]; 125 g ai/ha)?
A: The value was 40.

Q: What about the “Plant response rating, Morningglory” value (morningglory [6]; 500 g ai/ha) of the same molecule?
A: The value was 80.

Q: And the “Plant response rating, Barnyardgrass” value (barnyardgrass [7]; 125 g ai/ha)?
A: Its value is 0.

Q: What about the “Plant response rating, Barnyardgrass” value (barnyardgrass [7]; 500 g ai/ha, approx. 10 d) of the same molecule?
A: The value was 0.

Q: What about the “Plant response rating, Foxtail, Giant” value (foxtail, giant [8]; 125 g ai/ha) of the same molecule?
A: The value was 10.

Q: And the “Plant response rating, Foxtail, Giant” value (foxtail, giant [8]; 500 g ai/ha)?
A: The value was 30.

Q: And the “Plant response rating, Pigweed” value (pigweed [9]; 125 g ai/ha)?
A: Its value is 60.

Q: What about the “Plant response rating, Pigweed” value (pigweed [9]; 500 g ai/ha) of the same molecule?
A: The value was 100.

Q: What about the “Plant response rating, Wheat” value (wheat [10]; 125 g ai/ha) of the same molecule?
A: Its value is 0.

Q: What about the “Plant response rating, Wheat” value (wheat [10]; 500 g ai/ha, approx. 10 d) of the same molecule?
A: The value was 0.

Q: What about the “Plant response rating, Crabgrass, Large” value (crabgrass, large [11]; 125 g ai/ha) of the same molecule?
A: The value was 10.

Q: What about the “Plant response rating, Crabgrass, Large” value (crabgrass, large [11]; 500 g ai/ha) of the same molecule?
A: Its value is 40.

Q: What about the “Plant response rating, Pigweed” value (pigweed [12]; 125 g ai/ha) of the same molecule?
A: The value was 10.

Q: What about the “Plant response rating, Pigweed” value (pigweed [12]; 500 g ai/ha, approx. 10 d) of the same molecule?
A: Its value is 80.

Q: And the “Plant response rating, Corn” value (corn [13]; 125 g ai/ha)?
A: The value was 10.

Q: And the “Plant response rating, Corn” value (corn [13]; 500 g ai/ha)?
A: Its value is 20.

Q: And the “Rice plant response rating (0 to 100)” value (rice; 31 g ai/ha)?
A: Its value is 0.

Q: What about the “Rice plant response rating (0 to 100)” value (rice; 62 g ai/ha) of the same molecule?
A: The value was 0.

Q: And the “Rice plant response rating (0 to 100)” value (rice; 125 g ai/ha)?
A: The value was 0.

Q: And the “Rice plant response rating (0 to 100)” value (rice; 250 g ai/ha)?
A: The value was 0.

Q: What about the “Plant response rating, Wheat” value (wheat [14]; 125 g ai/ha) of the same molecule?
A: Its value is 0.

Q: And the “Plant response rating, Wheat” value (wheat [14]; 500 g ai/ha)?
A: Its value is 0.

Q: And the “Ducksalad plant response rating (0 to 100)” value (ducksalad; 31 g ai/ha)?
A: Its value is 0.

Q: What about the “Ducksalad plant response rating (0 to 100)” value (ducksalad; 62 g ai/ha) of the same molecule?
A: The value was 20.

Q: What about the “Ducksalad plant response rating (0 to 100)” value (ducksalad; 125 g ai/ha) of the same molecule?
A: Its value is 30.

Q: And the “Ducksalad plant response rating (0 to 100)” value (ducksalad; 250 g ai/ha)?
A: The value was 40.

Q: What about the “Sedge, Umbrella plant response rating (0 to 100)” value (shortened to “Sedge … (0 to 100)”) (sedge, umbrella; 31 g ai/ha) of the same molecule?
A: The value was 0.

Q: And the “Sedge … (0 to 100)” value (sedge, umbrella; 62 g ai/ha)?
A: Its value is 0.

Q: What about the “Sedge … (0 to 100)” value (sedge, umbrella; 125 g ai/ha) of the same molecule?
A: The value was 40.

Q: What about the “Sedge … (0 to 100)” value (sedge, umbrella; 250 g ai/ha) of the same molecule?
A: The value was 50.

Q: And the “Plant response rating, Velvetleaf” value (velvetleaf [15]; 125 g ai/ha)?
A: Its value is 10.

Q: What about the “Plant response rating, Velvetleaf” value (velvetleaf [15]; 500 g ai/ha) of the same molecule?
A: The value was 40.

Q: What about the “Plant response rating, Corn” value (corn [16]; 125 g ai/ha) of the same molecule?
A: The value was 0.

Q: What about the “Plant response rating, Corn” value (corn [16]; 500 g ai/ha, approx. 10 d) of the same molecule?
A: Its value is 0.

Q: What about the “Plant response rating, Foxtail, Giant” value (foxtail, giant [17]; 125 g ai/ha) of the same molecule?
A: The value was 0.

Q: What about the “Plant response rating, Foxtail, Giant” value (foxtail, giant [17]; 500 g ai/ha, approx. 10 d) of the same molecule?
A: Its value is 30.
